Laboratory results taken from PMC7687371, “Quantitative in Vitro to in Vivo Extrapolation (QIVIVE) for Predicting Reduced Anogenital Distance Produced by Anti-Androgenic Pesticides in a Rodent Model for Male Reproductive Disorders” (Environmental Health Perspectives, 2020).
Read-outs that look alike come from different tables or passages of the source.

Experiments:
[1] = Fetal chemical exposure analysis (LC-QTOF) at GD21; format: in vivo, rat
Summary of the method: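 Rat dams killed at GD21; pooled fetal trunk plasma (by sex, per litter, ~90 min post-dose) and amniotic fluid stored at −80 °C. Samples extracted with acetonitrile (C-18 cleanup) and analysed by positive-ESI LC-QTOF; quantified from (M+H)+ extracted-ion chromatograms ±0.005 Da against matrix-matched plasma standards.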

NCI-H295R cells = assay: H295R steroidogenesis assay; format: cell-based, human; conditions: for Effect on androgen (steroid) synthesis, in words: H295R steroidogenesis assay; for IC50 / IC20: Homo sapiens; for IC50: 48 h; for IC20: read-out: Testosterone inhibition (IC20 µM)
Summary of the method: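 Human adrenocortical NCI-H295R cells exposed 48 h to compounds in 2-fold dilutions from 0.8 to 50 μM (0.1% DMSO), three independent experiments. Ten steroid hormones in medium measured by LC-MS/MS and normalized to solvent controls; viability checked by MTT.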

[2] = set-up: method as in U.S. EPA 2012; conditions: EPI Suite, experimental preferred over modeled; ref U.S. EPA 2012; cited from earlier work
[3] = PBK model first-order kinetic parameters fitted to in vivo ADME data; set-up: species or system rat; conditions: PBK model parameter; for Metabolism rate in liver, Total (L/h) KMetab: metabolic clearance
[4] = NCI-H295R, read-out: Testosterone inhibition (IC50, μM)

Compound | Effect on androgen (steroid) synthesis, in words (NCI-H295R cells) | Corticosterone, LOEC (NCI-H295R cells; multiple contrast tests) | Estradiol, LOEC (NCI-H295R cells; multiple contrast tests) | OH-Progesterone, LOEC (NCI-H295R cells; multiple contrast tests) | log Kow [2] | Fecal excretion rate from gut (L/h) KFeces [3] | Portal GI absorption rate into liver (L/h) KAS [3] | Urine excretion rate from kidney (L/h) KUrine [3] | Metabolism rate in liver, Total (L/h) KMetab [3] | IC50 (NCI-H295R cells; [4]) | other results
N#Cc1c[nH]cc1-c1cccc2c1OC(F)(F)O2 [Fludioxonil, fludioxonil] | inhibited testosterone synthesis | 12.5 µM | 3.1 µM | 3.1 µM | 4.12 | 3 L/h | 1 L/h | 0.01 L/h | 0.3 L/h | – | Measured concentration in male fetuses ([1]; fetal plasma GD21, dams dosed 60 mg/kg BW per day (Study 3)): 3.3 µM; IC50 (NCI-H295R cells; NCI-H295R cells, NA = not active up to 50μM, read-out: Testosterone inhibition (IC50)): 10.8 µM; IC20 (NCI-H295R cells; NCI-H295R cells): 1.3 µM; Androstendione, LOEC (NCI-H295R cells; multiple contrast tests): 25 µM; Testosterone, lowest observed effect concentration (LOEC) (NCI-H295R cells; multiple contrast tests): 1.6 µM
CC12CC1(C)C(=O)N(c1cc(Cl)cc(Cl)c1)C2=O (centres unmarked) [Procymidone, procymidone, reference compound] | inhibited the synthesis of androgens | – | – | – | 3.08 | 0.04 L/h | – | 0.08 L/h | – | 6 µM | Measured concentration in male fetuses ([1]; male, Sprague-Dawley, rat, in vivo, 40 mg/kg/day): 7.8 µM
COc1ccc(C(=CC(=O)N2CCOCC2)c2ccc(Cl)cc2)cc1OC [Dimethomorph, dimethomorph] | inhibited testosterone synthesis | 0.8 µM | 0.8 µM | 12.5 µM | 2.68 | 2 L/h | 1 L/h | 0.01 L/h | 0.3 L/h | > 50 µM | Measured concentration in male fetuses ([1]; fetal plasma GD21, dams dosed 20 mg/kg BW per day (Study 3)): 1.35 µM; Androstenedione (relative to controls), mean (NCI-H295R cells; 0.8 µM): 0.83; Testosterone (relative to controls), mean (NCI-H295R cells; 0.8 µM): 0.88; Androstenedione (relative to controls), mean (NCI-H295R cells; 1.6 µM): 0.81; Testosterone (relative to controls), mean (NCI-H295R cells; 1.6 µM): 0.84; Androstenedione (relative to controls), mean (NCI-H295R cells; 3.1 µM): 0.80; Testosterone (relative to controls), mean (NCI-H295R cells; 3.1 µM): 0.76; Androstenedione (relative to controls), mean (NCI-H295R cells; 6.3 µM): 0.89; Testosterone (relative to controls), mean (NCI-H295R cells; 6.3 µM): 0.74; Androstenedione (relative to controls), mean (NCI-H295R cells; 12.5 µM): 0.77; Testosterone (relative to controls), mean (NCI-H295R cells; 12.5 µM): 0.68; Androstenedione (relative to controls), mean (NCI-H295R cells; 25 µM): 0.70; Testosterone (relative to controls), mean (NCI-H295R cells; 25 µM): 0.73; Androstenedione (relative to controls), mean (NCI-H295R cells; 50 µM): 0.67; Testosterone (relative to controls), mean (NCI-H295R cells; 50 µM): 0.67; IC20 (NCI-H295R cells; NCI-H295R): 2.8 µM; DHEA, LOEC (NCI-H295R cells; multiple contrast tests): 25 µM
